# According to US9758526B2, “Quinoline-substituted compound” (TAIHO PHARMACEUTICAL CO., LTD., priority 2013, dated 2017):
# Experiments:
# EGFR (T790M/L858R) = target: T1, EGFR (T790M/L858R) (Homo sapiens, UniProt P00533, L858R/T790M); assay: EGFR (T790M/L858R) kinase inhibitory activity; type: biochemical; conditions: ATP 1 μM, 25° C. for 120 minutes
# T1 construct: purchased Carna Biosciences, Inc
# Experimental: The inhibitory activities of the compounds of the present invention against EGFR (T790M/L858R) kinase activity were measured.
# (§1) Among the materials of the inhibitory activity measurement, the substrate peptide and the kinase protein were obtained as follows. A peptide with biotinylated N-terminus (biotin-EEPLYWSFPAKKK) was synthesized with reference to FL-Peptide 22, a reagent for LabChip® series of PerkinElmer, Inc. For the kinase protein, a purified recombinant human EGFR (T790M/L858R) protein of Carna Biosciences, Inc. was purchased.
# (§2) The inhibitory activity measurement was performed as follows. The compounds of the present invention were individually dissolved in dimethyl sulfoxide (DMSO), and serial dilutions of these compounds were prepared using DMSO. Subsequently, a solution containing the substrate peptide (final concentration: 250 nM), magnesium chloride (final concentration: 10 mM), manganese chloride (final concentration: 10 mM), and ATP (final concentration: 1 μM) in a buffer solution for kinase reaction (Carna Biosciences, Inc.) was mixed with the dilutions of the compounds (final concentration of DMSO upon kinase reaction: 2.5%) or DMSO (final concentration: 2.5%). EGFR (T790M/L858R) protein was further added thereto, and the mixtures were incubated at 25° C. for 120 minutes to carry out a kinase reaction. EDTA was added thereto to a final concentration of 24 mM to thereby terminate the reaction. A phosphorylated thyrosine detection solution containing europium (Eu)-labeled anti-phosphorylated tyrosine antibody PT66 (PerkinElmer, Inc.) and SureLight APC-SA (PerkinElmer, Inc.) was added to the reaction mixtures, and the mixtures were allowed to stand at room temperature for 2 hours or more. For the background, a sample to which EDTA was added before addition of EGFR (T790M/L858R) protein was incubated at 25° C. for 120 minutes, using DMSO instead of the DMSO solution of the compound. The detection solution was also added to this sample, and the mixture was allowed to stand for 2 hours or more. Finally, for all of the test samples, the amount of fluorescence at the time of irradiation of excitation light having a wavelength of 337 nm was measured at dual wavelengths of 620 nm and 665 nm by PHERAstar FS (BMG LABTECH), and a ratio of the fluorescence amounts at the two wavelengths was obtained as data.
# (§3) Based on the above rates, phosphorylation inhibition rates (%) were calculated for the samples to which various concentrations of the compound solutions were added. Finally, the obtained reaction inhibition rates (%) at the respective concentrations were plotted for each compound, and the IC50 value (nM), which is a compound concentration at which phosphorylation by EGFR (T790M/L858R) is inhibited by 50%, was determined using XLfit curve-fitting software (IDBS).
# EGFR (d746-750) = target: T2, EGFR (d746-750) (Homo sapiens, UniProt P00533, DEL746-750); assay: EGFR (d746-750) kinase inhibitory activity; type: biochemical; conditions: ATP 5 μM, kinase reaction 90 minutes
# T2 construct: purchased Carna Biosciences, Inc
# Experimental: as §1, §2, §3
# The inhibitory activities of the compounds of the present invention against EGFR (d746-750) kinase activity were measured.
# The materials, the measurement method, and the data analysis method were substantially the same as those shown in the above description regarding “Measurement of EGFR (T790M/L858R) Kinase Inhibitory Activity,” except that a purified recombinant human EGFR (d746-750) protein purchased from Carna Biosciences, Inc. was used as the kinase protein, the measurement was performed with ATP at a final concentration of 5 μM, and the incubation for the kinase reaction was performed for 90 minutes. Finally, the IC50 value (nM) of each compound with respect to EGFR (d746-750) was determined by data analysis.
# EGFR (d746-750/T790M) = target: T3, EGFR (d746-750/T790M) (Homo sapiens, UniProt P00533, DEL746-750/T790M); assay: EGFR (d746-750/T790M) kinase inhibitory activity; type: biochemical; conditions: ATP 1.5 μM
# T3 construct: purchased Carna Biosciences, Inc
# Experimental: as §1, §2, §3
# The inhibitory activities of the compounds of the present invention against EGFR (d746-750/T790M) kinase activity were measured.
# The materials, the measurement method, and the data analysis method were substantially the same as those shown in the above description regarding “Measurement of EGFR (T790M/L858R) Kinase Inhibitory Activity,” except that a purified recombinant human EGFR (d746-750/T790M) protein purchased from Carna Biosciences, Inc. was used as the kinase protein, and the measurement was performed with an ATP final concentration of 1.5 μM. Finally, the IC50 value (nM) of each compound with respect to EGFR (d746-750/T790M) was determined by data analysis.
# [1] = test system: NCI-H1975 expressing EGFR (T790M/L858R); assay: Growth inhibition, NCI-H1975 expressing EGFR (T790M/L858R); type: cell-based; conditions: Homo sapiens, NCI-H1975, 72 h; cultured three days, CellTiter-Glo
# Experimental: (§4) (1) A human […] lung cancer cell line NCI-H1975 expressing EGFR (T790M/L858R), (2) a human non-small cell lung cancer cell line HCC827 expressing EGFR (d746-750), and (3) a human epithelioid cancer cell line A431 expressing EGFR (WT) were each suspended in complete growth medium recommended by ATCC. The cell suspensions were seeded in each well of a 384-well flat microplate or a 96-well flat plate, and cultured in an incubator containing 5% carbon dioxide gas at 37° C. for one day. Each compound of the present invention was dissolved in DMSO, and serial dilutions of the test compound were prepared using DMSO (to a concentration 500 times the final concentration). The DMSO solution of the test compound or DMSO was diluted with complete growth medium, and the resulting solution was added to each well of the cell culture plate so that the final concentration of DMSO was 0.2%. Then, the cells were cultured in an incubator containing 5% carbon dioxide gas at 37° C. for three days. The number of cells was measured before the addition of the DMSO solution of the test compound, as well as after addition and culture by using a CellTiter-Glo Assay® (produced by Promega) according to a protocol recommended by Promega.
# (§5) For each cell, the cell growth inhibition rates of the wells to which the test compounds at various concentrations were added were calculated by the following formula. Then, the obtained inhibition rates (%) at the respective concentrations were plotted for each test compound, and the GI50 value (nM), which is a test compound concentration at which the cell growth can be inhibited by 50%, was determined using XLfit curve-fitting software (IDBS). • Cell Growth Inhibition Rate (%)=(C−T)/(C−CO)×100 • T: Luminescence intensity of well cultured for three days after addition of the test compound solution • C: Luminescence intensity of well cultured for three days after addition of DMSO • C0: Luminescence intensity of well before addition of the test compound solution
# [2] = test system: A431 expressing EGFR (WT); assay: Growth inhibition, A431 expressing EGFR (WT); type: cell-based; conditions: Homo sapiens, A-431, 72 h; cultured three days, CellTiter-Glo
# Experimental: as §4, §5
# [3] = test system: HCC827 expressing EGFR (d746-750); assay: Growth inhibition, HCC827 expressing EGFR (d746-750); type: cell-based; conditions: Homo sapiens, HCC827, 72 h; cultured three days, CellTiter-Glo
# Experimental: as §4, §5
# EGFR (WT) = target: T4, EGFR (WT) (Homo sapiens, UniProt P00533); assay: EGFR (WT) kinase inhibitory activity; type: biochemical; conditions: substrate peptide 500 nM
# T4 construct: expressing a cytoplasmic domain of human EGFR (WT) with its N-terminus fused to a FLAG tag; FLAG (N); made in house; host or cells: insect Sf9 cells, baculovirus expression system
# Experimental: as §1, §2, §3
# The inhibitory activities of the compounds of the present invention against EGFR (WT) kinase activity were measured.
# The materials, the measurement method, and the data analysis method were substantially the same as those shown in the above description regarding “Measurement of EGFR (T790M/L858R) Kinase Inhibitory Activity,” except that a kinase protein prepared by expressing a cytoplasmic domain of human EGFR (WT) with its N-terminus fused to a FLAG tag in insect Sf9 cells using a baculovirus expression system and then purifying it with anti-FLAG antibody agarose (Sigma-Aldrich) was used as the kinase protein, the final concentration of the substrate peptide was 500 nM, and the final concentration of ATP was […]. Finally, the IC50 value (nM) of each compound with respect to EGFR (WT) was determined by data analysis.
# EGFR (L858R) = target: T5, EGFR (L858R) (Homo sapiens, UniProt P00533, L858R); assay: EGFR (L858R) kinase inhibitory activity; type: biochemical; conditions: ATP 4 μM
# T5 construct: purchased Carna Biosciences, Inc
# Experimental: as §1, §2, §3
# The inhibitory activities of the compounds of the present invention against EGFR (L858R) kinase activity were measured.
# The materials, the measurement method, and the data analysis method were substantially the same as those shown in the above description regarding “Measurement of EGFR (T790M/L858R) Kinase Inhibitory Activity,” except that a purified recombinant human EGFR (L858R) protein purchased from Carna Biosciences, Inc. was used as the kinase protein, and the measurement was performed with ATP at a final concentration of 4 μM. Finally, the IC50 value (nM) of each compound with respect to EGFR (L858R) was determined by data analysis.
# T4 sequence (P00533 669-1210 limits assumed): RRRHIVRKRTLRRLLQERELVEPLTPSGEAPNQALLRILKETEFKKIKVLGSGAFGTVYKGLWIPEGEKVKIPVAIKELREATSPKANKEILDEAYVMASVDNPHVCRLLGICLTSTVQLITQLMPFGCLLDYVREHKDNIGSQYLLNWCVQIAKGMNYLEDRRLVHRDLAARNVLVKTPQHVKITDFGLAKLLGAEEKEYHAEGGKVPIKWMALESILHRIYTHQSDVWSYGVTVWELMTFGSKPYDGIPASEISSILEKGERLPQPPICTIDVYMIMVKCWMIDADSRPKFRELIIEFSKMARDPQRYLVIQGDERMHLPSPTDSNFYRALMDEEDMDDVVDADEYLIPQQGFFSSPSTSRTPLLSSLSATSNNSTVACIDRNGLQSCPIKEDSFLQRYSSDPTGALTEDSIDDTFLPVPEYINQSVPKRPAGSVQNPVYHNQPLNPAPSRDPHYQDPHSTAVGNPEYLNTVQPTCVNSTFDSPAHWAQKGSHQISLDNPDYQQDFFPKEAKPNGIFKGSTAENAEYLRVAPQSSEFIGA
# T1 sequence (P00533 25-1210 T790M/L858R): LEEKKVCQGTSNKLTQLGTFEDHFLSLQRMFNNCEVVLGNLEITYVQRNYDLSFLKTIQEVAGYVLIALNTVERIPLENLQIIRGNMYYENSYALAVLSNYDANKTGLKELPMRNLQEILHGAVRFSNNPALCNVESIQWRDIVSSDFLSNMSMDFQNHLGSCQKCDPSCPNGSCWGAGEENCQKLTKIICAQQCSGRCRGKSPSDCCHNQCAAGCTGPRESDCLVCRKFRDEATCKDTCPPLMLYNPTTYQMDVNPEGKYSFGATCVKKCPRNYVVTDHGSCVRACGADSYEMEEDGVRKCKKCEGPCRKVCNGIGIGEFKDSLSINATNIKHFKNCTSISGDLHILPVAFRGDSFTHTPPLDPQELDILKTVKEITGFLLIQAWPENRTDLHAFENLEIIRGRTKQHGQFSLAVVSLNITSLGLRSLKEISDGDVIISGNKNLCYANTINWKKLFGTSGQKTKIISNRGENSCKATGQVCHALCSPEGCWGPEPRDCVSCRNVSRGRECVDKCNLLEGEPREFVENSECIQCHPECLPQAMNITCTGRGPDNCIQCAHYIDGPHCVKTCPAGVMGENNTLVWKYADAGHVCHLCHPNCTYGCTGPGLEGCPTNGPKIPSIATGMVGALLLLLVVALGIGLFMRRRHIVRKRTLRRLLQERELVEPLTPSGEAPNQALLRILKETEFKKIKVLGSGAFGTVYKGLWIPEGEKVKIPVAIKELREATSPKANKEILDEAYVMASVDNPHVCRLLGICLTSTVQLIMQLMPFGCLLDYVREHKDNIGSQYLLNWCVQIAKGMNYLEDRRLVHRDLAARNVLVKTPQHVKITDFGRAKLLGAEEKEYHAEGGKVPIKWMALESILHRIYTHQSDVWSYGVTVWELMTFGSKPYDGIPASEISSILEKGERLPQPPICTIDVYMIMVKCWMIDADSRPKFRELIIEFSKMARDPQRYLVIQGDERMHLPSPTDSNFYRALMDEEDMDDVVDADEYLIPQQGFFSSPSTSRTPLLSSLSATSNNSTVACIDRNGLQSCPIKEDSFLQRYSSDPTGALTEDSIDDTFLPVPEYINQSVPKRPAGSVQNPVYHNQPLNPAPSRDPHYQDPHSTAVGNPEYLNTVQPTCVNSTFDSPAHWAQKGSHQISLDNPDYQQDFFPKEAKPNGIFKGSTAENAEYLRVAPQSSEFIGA
# T5 sequence (P00533 25-1210 L858R): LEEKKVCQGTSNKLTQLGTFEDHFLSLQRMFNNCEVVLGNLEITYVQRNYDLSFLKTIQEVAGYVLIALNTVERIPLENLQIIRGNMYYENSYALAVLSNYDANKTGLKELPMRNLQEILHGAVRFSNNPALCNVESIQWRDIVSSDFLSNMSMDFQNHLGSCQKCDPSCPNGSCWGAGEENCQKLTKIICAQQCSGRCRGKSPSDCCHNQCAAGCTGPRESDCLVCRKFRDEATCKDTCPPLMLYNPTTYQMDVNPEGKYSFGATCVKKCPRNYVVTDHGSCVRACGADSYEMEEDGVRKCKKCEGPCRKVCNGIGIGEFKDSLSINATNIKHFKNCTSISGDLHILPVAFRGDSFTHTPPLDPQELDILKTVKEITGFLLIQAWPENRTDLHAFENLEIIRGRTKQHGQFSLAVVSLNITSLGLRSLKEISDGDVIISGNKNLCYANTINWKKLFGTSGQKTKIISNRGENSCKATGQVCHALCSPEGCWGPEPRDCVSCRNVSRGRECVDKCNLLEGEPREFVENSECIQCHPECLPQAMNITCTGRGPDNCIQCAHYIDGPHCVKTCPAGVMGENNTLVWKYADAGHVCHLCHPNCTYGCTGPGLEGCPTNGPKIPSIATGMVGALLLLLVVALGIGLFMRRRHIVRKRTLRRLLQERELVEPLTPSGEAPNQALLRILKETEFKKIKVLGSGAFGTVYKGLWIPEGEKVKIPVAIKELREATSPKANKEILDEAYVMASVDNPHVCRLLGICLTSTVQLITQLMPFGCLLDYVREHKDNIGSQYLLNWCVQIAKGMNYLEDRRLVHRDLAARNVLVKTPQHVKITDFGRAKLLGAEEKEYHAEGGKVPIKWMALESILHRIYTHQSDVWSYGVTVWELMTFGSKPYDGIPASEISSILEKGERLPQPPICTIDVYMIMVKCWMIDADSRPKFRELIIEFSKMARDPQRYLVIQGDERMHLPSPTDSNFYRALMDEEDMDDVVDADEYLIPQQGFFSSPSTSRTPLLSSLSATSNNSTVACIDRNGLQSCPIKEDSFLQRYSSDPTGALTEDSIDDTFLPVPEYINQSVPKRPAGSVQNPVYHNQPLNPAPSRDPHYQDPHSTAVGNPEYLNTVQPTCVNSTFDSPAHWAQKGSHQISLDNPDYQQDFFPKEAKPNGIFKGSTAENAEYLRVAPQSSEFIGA
# T3 sequence (P00533 with tags, fused parts or gaps DEL746-750/T790M limits assumed): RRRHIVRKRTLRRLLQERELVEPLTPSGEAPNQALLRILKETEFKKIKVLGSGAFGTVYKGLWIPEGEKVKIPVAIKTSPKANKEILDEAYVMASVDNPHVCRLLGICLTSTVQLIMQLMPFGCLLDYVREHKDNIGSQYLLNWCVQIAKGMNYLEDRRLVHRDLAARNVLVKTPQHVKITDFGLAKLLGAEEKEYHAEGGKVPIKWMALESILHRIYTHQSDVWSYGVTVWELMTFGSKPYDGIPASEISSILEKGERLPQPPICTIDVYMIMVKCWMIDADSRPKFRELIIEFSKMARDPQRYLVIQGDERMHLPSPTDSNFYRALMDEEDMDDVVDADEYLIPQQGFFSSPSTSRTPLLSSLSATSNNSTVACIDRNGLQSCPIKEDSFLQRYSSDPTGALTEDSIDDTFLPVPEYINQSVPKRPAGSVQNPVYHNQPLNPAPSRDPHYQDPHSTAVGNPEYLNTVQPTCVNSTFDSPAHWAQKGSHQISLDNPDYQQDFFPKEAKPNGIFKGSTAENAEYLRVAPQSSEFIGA
# T2 sequence (P00533 with tags, fused parts or gaps DEL746-750 limits assumed): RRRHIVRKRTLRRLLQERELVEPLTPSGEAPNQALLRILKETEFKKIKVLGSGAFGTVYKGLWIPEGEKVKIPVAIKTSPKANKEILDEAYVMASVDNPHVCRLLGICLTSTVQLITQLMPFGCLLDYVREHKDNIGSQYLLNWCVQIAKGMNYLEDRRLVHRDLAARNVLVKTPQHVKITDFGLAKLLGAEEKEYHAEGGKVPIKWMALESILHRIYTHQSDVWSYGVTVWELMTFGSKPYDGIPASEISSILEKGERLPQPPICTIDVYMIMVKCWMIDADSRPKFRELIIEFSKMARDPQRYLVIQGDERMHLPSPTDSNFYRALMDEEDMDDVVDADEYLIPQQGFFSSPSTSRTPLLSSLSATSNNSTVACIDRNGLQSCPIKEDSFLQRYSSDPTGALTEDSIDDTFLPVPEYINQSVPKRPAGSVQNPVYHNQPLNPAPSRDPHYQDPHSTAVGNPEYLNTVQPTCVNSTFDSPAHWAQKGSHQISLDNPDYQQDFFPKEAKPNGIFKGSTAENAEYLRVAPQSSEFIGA
Compound,IC50 (EGFR (T790M/L858R)) [nM],IC50 (EGFR (d746-750)) [nM],IC50 (EGFR (d746-750/T790M)) [nM],GI50 [1] [nM],GI50 [2] [nM],GI50 [3] [nM],IC50 (EGFR (WT)) [nM],IC50 (EGFR (L858R)) [nM]
"C=C1c2c(-c3cnc4ccccc4c3)c3c(N)ncnc3n2C[C@H]1NC(=O)/C=C/CN1CCCCC1 [Example 7, (S,E)-N-(4-amino-6-methylene-5-(quinolin-3-yl)-7,8-dihydro-6H-pyrimido[5,4-b]pyrrolizin-7-yl)-4-(piperidin-1-yl)but-2-enamide]",1,1.2,0.53,150,2600,5.6,12,1.7
"C#CC(=O)N[C@@H]1Cn2c(c(-c3cnc4ccccc4c3)c3c(N)ncnc32)C1=C [Example 8, (S)—N-(4-amino-6-methylene-5-(quinolin-3-yl)-7,8-dihydro-6H-pyrimido[5,4-b]pyrrolizin-7-yl)propiolamide]",< 0.5,< 0.15,< 0.15,800,1100,66,1,< 0.5
"C=C1c2c(-c3cnc4ccccc4c3)c3c(N)ncnc3n2C[C@H]1NC(=O)C#CC [Example 9, (S)—N-(4-amino-6-methylene-5-(quinolin-3-yl)-7,8-dihydro-6H-pyrimido[5,4-b]pyrrolizin-7-yl)but-2-ynamide]",2.1,2.3,0.45,770,4200,7.5,52,5.9
"C=C1c2c(-c3cnc4ccccc4c3)c3c(N)ncnc3n2C[C@H]1NC(=O)/C=C/CN(C)CC [Example 11, (S,E)-N-(4-amino-6-methylene-5-(quinolin-3-yl)-7,8-dihydro-6H-pyrimido[5,4-b]pyrrolizin-7-yl)-4-(ethyl(methyl)amino)but-2-enamide]",0.76,0.88,0.32,260,3900,9.7,12,1.4

# Next, values leading:
IC50 (EGFR (T790M/L858R)) [nM],IC50 (EGFR (d746-750)) [nM],IC50 (EGFR (d746-750/T790M)) [nM],GI50 [1] [nM],GI50 [2] [nM],GI50 [3] [nM],IC50 (EGFR (WT)) [nM],IC50 (EGFR (L858R)) [nM],Compound
< 0.15,< 0.15,< 0.15,51,2200,8.1,0.78,< 0.15,"C=C1c2c(-c3cnc4ccccc4c3)c3c(N)ncnc3n2C[C@H]1NC(=O)/C=C/Cl [Example 5, (S,E)-N-(4-amino-6-methylene-5-(quinolin-3-yl)-7,8-dihydro-6H-pyrimido[5,4-b]pyrrolizin-7-yl)-3-chloroacrylamide]"
0.26,0.42,0.28,49,990,5.6,2.2,0.27,"C=CC(=O)N[C@H]1C/C(=C\C)c2c(-c3cnc4ccccc4c3)c3c(N)ncnc3n2C1 [Example 19, (S,E)-N-(4-amino-6-ethylidene-5-(quinolin-3-yl)-6,7,8,9-tetrahydropyrimido[5,4-b]indolizin-8-yl)acrylamide]"
1.6,1.4,1.2,85,2000,22,7.9,1.3,"C=CC(=O)N[C@H]1CC(=C)c2c(-c3cnc4ccccc4c3)c3c(N)ncnc3n2C1 [Example 15, (S)—N-(4-amino-6-methylene-5-(quinolin-3-yl)-6,7,8,9-tetrahydropyrimido[5,4-b]indolizin-8-yl)acrylamide]"
23,39,11,2900,> 10000,160,580,50,"C=CC(=O)N[C@@H]1CC(=C)c2c(-c3cnc4ccccc4c3)c3c(N)ncnc3n2C1 [Example 17, (R)—N-(4-amino-6-methylene-5-(quinolin-3-yl)-6,7,8,9-tetrahydropyrimido[5,4-b]indolizin-8-yl)acrylamide]"
4.7,4.5,1.3,160,4000,8.9,68,12,"C=CC(=O)N[C@@H]1CCn2c(c(-c3cnc4ccccc4c3)c3c(N)ncnc32)C(=C)C1 [Example 18, (S)—N-(4-amino-6-methylene-5-(quinolin-3-yl)-7,8,9,10-tetrahydro-6H-pyrimido[5′,4′:4,5]pyrrolo[1,2-a]azepin-8-yl)acrylamide]"
